Series [1] has as its system MCF-7 cells. The experiment in a line: Mitochondrial membrane permeability, rhodamine 123 flow cytometry. The series is classed as cell-based, human. The note with it: control treated cells assigned 100%. The text has this: (§1) Mitochondria play a crucial role in the apoptotic cascade by serving as a convergent center of apoptotic signals originating from both the extrinsic and intrinsic pathways. Changes induced in the mitochondrial membrane potential (MMP) have been reported previously to represent a determinant in the execution of cell death. As polygodial has been described as an inhibitor of mitochondrial ATPase and also as nonionic surfactant. This effect may be determinant in cell death, we has analyzed the effect of compounds 1, 8 and 12 on the mitochondrial membrane potential using flow cytometry with rhodamine 123 stain [24]. […] Similar differences were observed after treatments with compounds 1 and 8 at 100 μM.
(§2) Rhodamine 123, a cationic, voltage-sensitive probe that reversibly accumulates in mitochondria, was used to detect changes in transmembrane mitochondrial membrane potentials. Cells were labelled with 1 μM rhodamine 123 at 37 °C in cell medium for 60 min before terminating the experiment. Cells were detached from the plate, after washing with ice cold PBS, and the samples were analyzed by flow cytometry. Data are expressed in percentage of cells with rhodamine 123 [24].

For series [2], the system named is CoN cells. The description is as above. The note with it: control treated cells assigned 100%. The format is cell-based, human.
Description: as §1, §2

Series [3] concerns PC-3 cells. Described as above. The format is cell-based, human. Particulars: control treated cells assigned 100%.
Description: as §1, §2

The test system of series [4] is panel of cancer cell lines. The experiment in a line: Cytotoxicity against a panel of cancer cell lines (summary). The series is classed as cell-based. The note with it: Homo sapiens; summary statement of the conclusions. The procedure: (§3) The cytotoxicity of compounds 1–12 was evaluated in vitro against different cancer cell lines: MCF-7 breast cancer, DU-145 and PC-3 human prostate cancer, and one non-tumor cell line, human colon epithelial cells CCD 841 CoN (CoN). […] Four serial dilutions (from 12.5 to 100 μM) for each sample were evaluated in triplicate.
(§4) The sulforhodamine B assay was used according to the method of Skehan et al.. Briefly, the cells were set up at 3 × 10^3 cells per well of a 96 200 μL well, flat-bottomed, microplate. Cells were incubated at 37 °C in a humidified 5% CO2/95% air mixture and treated with the compounds at different concentrations for 72 h. At the end of drug exposure, cells were fixed with 50% trichloroacetic acid at 4 °C. After washing with water, cells were stained with 0.1% sulforhodamine B (Sigma-Aldrich, St. Louis, MO, USA), dissolved in 1% acetic acid (50 μL/well) for 30 min, and subsequently washed with 1% acetic acid to remove unbound stain. Protein-bound stain was solubilized with 100 μL of 10 mM unbuffered Tris base, and the cell density was determined using a […] plate reader (wavelength 540 nm). Values shown are the mean ± SD of three independent experiments in triplicate. The software used to calculate the IC50 values was GraphPad (GraphPad Software, San Diego, CA, USA).

Series [5] has as its system caspase-3 in PC-3 cells. The experiment in a line: Caspase 3 activity assay (colorimetric, DEVD-pNA). The note with it: PC-3, compound 50 μM; control 1% ethanol. The format is cell-based, human. From the text: (§5) Depletion of mitochondrial membrane potential leads to the release of apoptogenic factors, such as cytochrome c in the apoptotic cascade, and activation of caspases. Then we investigated the effects of our compounds on caspase activity. We focused on caspase-3, which is a main executor of apoptosis playing a central role in its biological processing. We analyzed the effect of treatment with the compound 1, 8 and 12 on caspase-3 activation in normal and cancer cells. […] Compound 1 increased the activity of caspase-3 by 3.4 ± 0.1, 1.4 ± 0.1 and 2.8 ± 0.1 times versus control cells in MCF-7 (black), CoN (white) and PC-3 (gray) cells, respectively. Compound 8 increased the activity of caspase 3 by 2.4 ± 0.1, 1.3 ± 0.2 and 2.7 ± 0.1 times versus control cells in MCF-7 (black), CoN (white) and PC-3 (gray) cells, respectively.
(§6) Caspase activity was measured using a colorimetric assay. Briefly, the cells exposed to compounds were collected by centrifugation at 1000 rpm and lysed with lysis buffer (1% Triton X-100, 0.32 M sucrose, 5 mM EDTA, 10 mM Tris–HCl, pH 8.0, 2 mM dithiothreitol, 1 mM PMSF, […] aprotinin, 1 mg/mL leupeptin). Thereafter, the lysates were transferred to wells in a 96-well microplate and were incubated with DEVD-pNA (final concentration 200 μM) specific for caspase-3/7, at 37 °C for 1 h. The intensity of the developed color was read at 405 nm in a microplate reader (SpectraMax, Winooski, VT, USA). The results are expressed as percentages of the control level.

Series [6] has as its system caspase-3 in CoN cells. The experiment in a line: Caspase 3 activity assay (colorimetric, DEVD-pNA). The series is classed as cell-based, human. Particulars: compound 50 μM, control 1% ethanol.
Description: as §5, §6

The test system of series [7] is caspase-3 in MCF-7 cells. The experiment in a line: Caspase 3 activity assay (colorimetric, DEVD-pNA). The series is classed as cell-based, human. Particulars: MCF-7, compound 50 μM; control 1% ethanol.
Description: as §5, §6

Series [8] deals with MCF-7 cells. The experiment in a line: Morphological assessment of cell apoptosis, Hoechst 33342 staining. The series is classed as cell-based, human. Particulars: MCF-7, 24 h exposure, fluorescence microscope. How it is done: (§7) Nuclear changes in PC-3, MCF-7 and CoN cells were observed under a fluorescence microscope (200×, Figure 4).
(§8) Briefly, on 24-well chamber slides, 1 × 10^4 cells/mL were cultured and exposed to compounds for 24 h. The control group was also exposed to 1% ethanol. The cells were washed twice with phosphate buffer solution, fixed with 3.7% formaldehyde, and washed again with phosphate buffer solution. Following the addition of 1 μM Hoechst 33342 (Sigma-Aldrich, Santiago, Chile), they were reacted in a dark room at room temperature for 30 min. After washing, they were examined under an immunofluorescence microscope (IX 81 model inverted microscope, Olympus, Santiago, Chile).

Series [9] relates to CoN cells. The description is as above. The series is classed as cell-based, human. Particulars: 24 h exposure, fluorescence microscope. The procedure: as §7, §8
The subject of series [10] is PC-3 cells. The description is as above. The series is classed as cell-based, human. The note with it: PC-3, 24 h exposure, fluorescence microscope. How it is done:
as §7, §8

Series [11] concerns MCF-7 cells. The experiment in a line: Morphological changes, phase contrast microscope. The series is classed as cell-based, human. Particulars: MCF-7, 50 μM compound for 24 h. How it is done:
(§9) First, the appearance of morphological changes in the cells treated with 50 μM compound for 24 h was analyzed.

Series [12] concerns CoN cells. The experiment in a line: Morphological changes, phase contrast microscope. The note with it: 50 μM compound for 24 h. The format is cell-based, human. How it is done:
as §9

In series [13] the test system is PC-3 cells. The experiment in a line: Morphological changes, phase contrast microscope. The series is classed as cell-based, human. The note with it: PC-3, 50 μM compound for 24 h. The procedure:
as §9

The test system of series [14] is MCF-7 breast cancer cell line. The experiment in a line: Cell viability, sulforhodamine B assay. The format is cell-based. Particulars: Homo sapiens, MCF7, 72 h exposure, dilutions 12.5 to 100 μM, read-out: Cytotoxicity IC50, MCF-7. The procedure: as §3
(§10) The experimental cell cultures were obtained from the American Type Culture Collection (Rockville, MD, USA). MCF-7 cells (breast cancer cell line), PC-3 and DU-145 (prostate cancer cell lines), and human colon epithelial cells CCD 841 CoN (non-tumoral cell line) were grown in Dulbecco’s modified Eagle’s medium (DMEM) containing 10% FCS, 100 U/mL penicillin, 100 μg/mL streptomycin, and 1 mM glutamine. Cells were seeded into 96 well microtiter plates in 100 μL at a plating density of 5 × 10^3 cells/well. After 24 h incubation at 37 °C under a humidified 5% CO2 atmosphere to allow cell attachment, the cells were treated with different concentrations of drugs and incubated for 72 h under the same conditions. Stock solutions of compounds were prepared in ethanol and the final concentration of this solvent was kept constant at 1%. Control cultures received 1% ethanol alone.
as §4

The nature of series [15]: Cell viability, sulforhodamine B assay. The series is classed as cell-based. Particulars: human, CCD 841 CoN colon epithelial cells (non-tumoral cell line), 72 h exposure, dilutions 12.5 to 100 μM, non-tumor cell line, read-out: Cytotoxicity IC50, CoN. How it is done: as §3, §10, §4
Series [16] deals with DU-145 prostate cancer cell line. The experiment in a line: Cell viability, sulforhodamine B assay. The note with it: Homo sapiens, 72 h exposure, dilutions 12.5 to 100 μM, read-out: Cytotoxicity IC50, DU145. The format is cell-based. How it is done:
as §3, §10, §4

For series [17], the system named is PC-3 prostate cancer cell line. The experiment in a line: Cell viability, sulforhodamine B assay. The series is classed as cell-based. The note with it: Homo sapiens, 72 h exposure, dilutions 12.5 to 100 μM, read-out: Cytotoxicity IC50, PC-3. How it is done: as §3, §10, §4
Series [18] has as its system Salmonella strains TA 98, TA 2637, and TA 100. The note with it: at highest non-toxic concentration; cited from earlier work.

On to `CC1(C)CCC[C@]2(C)[C@@H](C3OCCO3)C(C=O)=CC[C@@H]12` [Compound 8], for which the “percentage of rhodamine 123 stained cells” value in series [1] (MCF-7, compound 50 µM) is 93.3% ± 7.1%; in series [1] (MCF-7, compound 50 µM, listed as Comp. 8) it was 93.3 ± 7.1%; in [1] (MCF-7, compound 100 µM), 72.3 ± 6.4 %; in series [2] (compound 50 µM), 96.0% ± 7.6%; in series [2] (compound 50 µM, listed as Comp. 8) it was 96.0 ± 7.6%; in series [2] (compound 100 µM), 52.3 ± 8.4 %. Moreover, the “percentage of rhodamine 123 stained cells” value in [3] (PC-3, compound 50 µM, listed as Comp. 8) came out at 136.2 ± 18.5%; in series [3] (PC-3, compound 100 µM), 92.8 ± 10.4%. In addition, the IC50 in series [4] is less than 200 µM; in series [14] it was 97.1 ± 7.2 µM; in series [16] it was 70.6 ± 5.9 µM; in series [17] it was 65.4 ± 5.5 µM. For the same compound, the “increase of caspase-3 activity” value is 2.7 ± 0.1 times versus control cells in series [5], 1.3 ± 0.2 times versus control cells in series [6] and 2.4 ± 0.1 times versus control cells in [7]. Moreover, the “nuclear changes after Hoechst 33342 staining” value in [8] is “chromatin condensation and karyopyknosis”; in series [9] it was “chromatin condensation and karyopyknosis”; in series [10], “chromatin condensation and karyopyknosis”. Also, the “morphological changes of cells” value in [11], in [12] and in [13] was “severely distorted” in each case. For the same compound, the half-inhibitory concentration (IC50) at 72 h in [15] was more than 200 µM.

Turning to `CC1(C)CCC[C@]2(C)[C@H](C=O)C(C=O)=CC[C@@H]12` [Compound 2, isopolygodial], the mutagenic activity entry in series [18] is on record as “no mutagenic activity”. The half-inhibitory concentration (IC50) in [14], in [16] and in series [17] was more than 200 µM throughout. Besides, the concentration for half-maximal inhibition (IC50) at 72 h in series [15] was more than 200 µM.

These data come from PMC6270921, “Study on the Cytotoxic Activity of Drimane Sesquiterpenes and Nordrimane Compounds against Cancer Cell Lines” (Molecules, 2014).
